We go through ten compounds from ChEMBL document CHEMBL1201862, “PubChem BioAssay data set” (2004).

Some test systems named below: T47D; PC-3; A498; OVCAR-8; HT-29; A549; BT-549; OVCAR-5; CAKI-1; UACC-62; NCI-H522; MDA-MB-435; HCT-116; MDA-MB-231; Hs-578T; SW-620; DU-145; COLO 205; SN12C; SK-MEL-28.
Common to all, as to experiment: NCI-60 cell line screen, 48 h

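Growth conditions: 96-well plates. Treatment: test compound, 48 hours, 5 concentrations. Analysis: linear interpolation between bracketing concentrations; unreached endpoints set to highest concentration. At the GI50, growth is halved.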 Active and inactive are the calls of the source. Cut-off read from the data, not from the text of the source: active = GI50 up to about 1.1 µM and inactive = higher.

Take `Cc1c[nH]c(C(=O)O)c1-c1ccc2c(-c3ccccc3)nc3ccccc3n12`: the GI50 in the test on T47D is 37.2 µM (inactive); in the test with PC-3 it was 27.4 µM (inactive); in the test with A498, 13.9 µM (inactive); with OVCAR-8, 22.6 µM (inactive); in the test with HT-29, 22.8 µM (inactive); in the test on A549 it was 33.7 µM (inactive). The GI50 in the test on BT-549 was 30.6 µM (inactive); in the test on OVCAR-5, 36 µM (inactive); in the test with CAKI-1 it was 34.7 µM (inactive); in the test on UACC-62, 20.7 µM (inactive); in the test with NCI-H522, 20.9 µM (inactive); with MDA-MB-435, 23.2 µM (inactive). The GI50 was 34.8 µM (inactive) in the test on HCT-116; 32.9 µM (inactive) in the test on MDA-MB-231; 18.6 µM (inactive) with Hs-578T; 41.2 µM (inactive) with SW-620; 36.7 µM (inactive) in the test with DU-145; 39.4 µM (inactive) in the test with COLO 205. The GI50 is 30.7 µM (inactive) with SN12C and 31.4 µM (inactive) with SK-MEL-28.

With `Cc1cc(C)c2c(O)cc(-c3ccc(Cl)cc3)nc2n1`, the GI50 in the test with T47D is 40 µM (inactive); with PC-3 it was 14.9 µM (inactive); in the test with A498, 32.4 µM (inactive); with OVCAR-8, > 100 µM (inactive); in the test with HT-29 it was 19.9 µM (inactive); with A549, 30.6 µM (inactive). Besides, the GI50 is 23.6 µM (inactive) with BT-549; > 100 µM (inactive) in the test with OVCAR-5; 37.4 µM (inactive) in the test on CAKI-1; 60.4 µM (inactive) in the test with UACC-62; 46.8 µM (inactive) in the test on NCI-H522; 6.79 µM (inactive) in the test with MDA-MB-435. In addition, the GI50 is 24.2 µM (inactive) with HCT-116; > 27.9 µM (inactive) in the test with MDA-MB-231; > 100 µM (inactive) in the test on Hs-578T; 26.6 µM (inactive) with SW-620; 54.1 µM (inactive) in the test on DU-145; 24.7 µM (inactive) in the test with COLO 205. For the same compound, the figures for the GI50 in the test on SN12C and in the test with SK-MEL-28 were > 33 µM (inactive) and 28.3 µM (inactive), respectively.

For the compound `O=C(NC1CCCCC1NC(c1ccccc1)(c1ccccc1)c1ccccc1)C(=O)NC1CCCCC1NC(c1ccccc1)(c1ccccc1)c1ccccc1` (stereo not given), the GI50 in the test with T47D was 60.4 µM (inactive); with PC-3, > 100 µM (inactive); in the test on A498, 28.9 µM (inactive); in the test on OVCAR-8, > 100 µM (inactive); in the test on HT-29 it was > 100 µM (inactive); with A549 it was > 100 µM (inactive). In addition, the GI50 with BT-549 is 28.1 µM (inactive); in the test with OVCAR-5, > 100 µM (inactive); with CAKI-1, > 100 µM (inactive); with UACC-62, > 10 µM (inactive); in the test on NCI-H522 it was 89.9 µM (inactive); with MDA-MB-435, > 100 µM (inactive). Besides, the GI50 in the test on HCT-116 is > 100 µM (inactive); with MDA-MB-231, > 100 µM (inactive); in the test on Hs-578T, 13.6 µM (inactive); in the test with SW-620, > 100 µM (inactive); in the test on DU-145, > 100 µM (inactive); in the test on COLO 205, > 100 µM (inactive). Also, the GI50 in the test with SN12C and with SK-MEL-28 was > 100 µM (inactive) each time.

As for `COc1ccc(/C=N/n2c(Cc3ccc(Cl)cc3)n[nH]c2=O)c(OC)c1`, the GI50 with T47D was 69 µM (inactive); in the test with PC-3 it was 28.8 µM (inactive); with A498, 20.4 µM (inactive); with OVCAR-8, 33 µM (inactive); in the test with HT-29, 24.9 µM (inactive); in the test with A549, 27.4 µM (inactive). Further, the GI50 was 35.2 µM (inactive) with BT-549; 38.3 µM (inactive) with OVCAR-5; 45.4 µM (inactive) with CAKI-1; 24.9 µM (inactive) with UACC-62; 16 µM (inactive) in the test with NCI-H522; 36.8 µM (inactive) in the test with MDA-MB-435. Also, the GI50 in the test with HCT-116 was > 100 µM (inactive); in the test on MDA-MB-231, 52.5 µM (inactive); in the test on Hs-578T, 14.3 µM (inactive); in the test with SW-620, > 100 µM (inactive); with DU-145, 67.8 µM (inactive); with COLO 205, > 100 µM (inactive). Moreover, the GI50 is > 10 µM (inactive) with SN12C and 80 µM (inactive) in the test on SK-MEL-28.

`COc1cc(/C=C2\Cc3cc(OC)c(OC)cc3C2=O)cc(OC)c1`: the GI50 was > 100 µM (inactive) in the test with T47D; > 79.1 µM (inactive) in the test with PC-3; 36.8 µM (inactive) with A498; > 26 µM (inactive) in the test on OVCAR-8; > 100 µM (inactive) in the test with HT-29; > 96.6 µM (inactive) in the test on A549. Also, the GI50 with BT-549 is 15.3 µM (inactive); in the test on OVCAR-5, > 100 µM (inactive); in the test on CAKI-1, > 46.8 µM (inactive); with UACC-62, 14.2 µM (inactive); with NCI-H522, 3.74 µM (inactive); in the test with MDA-MB-435, 1.04 µM (active). The GI50 in the test with HCT-116 is 21 µM (inactive); in the test on MDA-MB-231 it was 36.3 µM (inactive); in the test with Hs-578T it was 22 µM (inactive); with SW-620, > 100 µM (inactive); in the test with DU-145, > 100 µM (inactive); in the test with COLO 205, > 46.7 µM (inactive). The GI50 in the test with SN12C was > 74.1 µM (inactive); in the test on SK-MEL-28 it was > 100 µM (inactive).

As to `CC(=O)Oc1cc2c(n(C)c1=O)-c1ccccc1C2`, the GI50 is > 100 µM (inactive) in the test with T47D; 40.8 µM (inactive) in the test with PC-3; 97.7 µM (inactive) in the test with A498; 32 µM (inactive) with OVCAR-8; 78.2 µM (inactive) in the test on HT-29; 63.7 µM (inactive) in the test on A549. The GI50 in the test with BT-549 is 46.1 µM (inactive); with OVCAR-5, > 100 µM (inactive); in the test with CAKI-1 it was 29.1 µM (inactive); in the test on UACC-62, 75.3 µM (inactive); in the test with NCI-H522, 15.9 µM (inactive); in the test on MDA-MB-435 it was > 100 µM (inactive). Further, the GI50 with HCT-116 was 34.7 µM (inactive); in the test on MDA-MB-231 it was 61.4 µM (inactive); in the test on Hs-578T, 65 µM (inactive); with SW-620, 24.4 µM (inactive); with DU-145, > 100 µM (inactive); with COLO 205 it was 39.4 µM (inactive). Also, the GI50 in the test with SN12C and with SK-MEL-28 was > 100 µM (inactive) each time.

Take `O=C1c2ccccc2CN1c1ccc(O)cc1`: the GI50 in the test with T47D, in the test on PC-3, in the test with A498, in the test with OVCAR-8, in the test on HT-29 and in the test with A549 was > 100 µM (inactive) each time. The GI50 in the test on BT-549, in the test with OVCAR-5, in the test with CAKI-1, with UACC-62, in the test with NCI-H522 and in the test on MDA-MB-435 was > 100 µM (inactive) each time. Moreover, the GI50 in the test with HCT-116, in the test with MDA-MB-231, in the test with Hs-578T, with SW-620, with DU-145 and in the test on COLO 205 was > 100 µM (inactive) throughout. Also, the GI50 in the test on SN12C and with SK-MEL-28 was > 100 µM (inactive) in each case.

`COC(=O)/C=C/c1ccc(OP(=O)(O)O)c(OC)c1`: the GI50 in the test on T47D, in the test with PC-3, in the test on A498, in the test on OVCAR-8, in the test with HT-29 and with A549 was > 100 µM (inactive) throughout. Moreover, the GI50 in the test on BT-549, in the test with OVCAR-5, in the test with CAKI-1, with UACC-62, with NCI-H522 and with MDA-MB-435 was > 100 µM (inactive) throughout. For the same compound, the GI50 with HCT-116, in the test on MDA-MB-231, in the test on Hs-578T, with SW-620, in the test on DU-145 and with COLO 205 was > 100 µM (inactive) in each case. Also, the GI50 with SN12C and with SK-MEL-28 was > 100 µM (inactive) each time.

As for `COc1ccc(SCc2cc(OCc3ccccc3)c(OCc3ccccc3)c(OCc3ccccc3)c2)cc1`, the GI50 was 2.69 µM (inactive) in the test on T47D; 1.92 µM (inactive) with PC-3; 2.06 µM (inactive) in the test with A498; 1.78 µM (inactive) with OVCAR-8; 1.52 µM (inactive) with HT-29; 2.16 µM (inactive) in the test on A549. The GI50 with BT-549 was 2.24 µM (inactive); in the test on OVCAR-5, 1.62 µM (inactive); in the test with CAKI-1 it was 1.6 µM (inactive); in the test on UACC-62, 2.11 µM (inactive); in the test on NCI-H522 it was 1.83 µM (inactive); in the test with MDA-MB-435, 1.76 µM (inactive). Besides, the GI50 was 1.75 µM (inactive) in the test with HCT-116; 1.36 µM (inactive) in the test with MDA-MB-231; 2.12 µM (inactive) in the test with Hs-578T; 1.7 µM (inactive) in the test with SW-620; 1.75 µM (inactive) with DU-145; 2.85 µM (inactive) in the test on COLO 205. Further, the figures for the GI50 with SN12C and in the test on SK-MEL-28 were 1.79 µM (inactive) and 2.07 µM (inactive), respectively.

For the compound `CCOC(=O)C(CS)NC(=O)CCCCCCCC(=O)O` (stereo not given), the GI50 in the test on T47D, with PC-3, in the test with A498, with OVCAR-8, with HT-29 and in the test with A549 was > 100 µM (inactive) each time. In addition, the GI50 in the test with BT-549, in the test on OVCAR-5, in the test on CAKI-1, in the test on UACC-62, in the test with NCI-H522 and in the test on MDA-MB-435 was > 100 µM (inactive) each time. Besides, the GI50 in the test on HCT-116, with MDA-MB-231, with Hs-578T, in the test with SW-620, in the test on DU-145 and in the test on COLO 205 was > 100 µM (inactive) each time. The GI50 in the test on SN12C and in the test with SK-MEL-28 was > 100 µM (inactive) throughout.
